According to US5750362A, “Methods for identifying substances with a potential herbicidal or growth-regulating action by means of plant transporter proteins, the use of the transporter proteins, and substances with a herbicidal and growth-regulating action” (BASF Aktiengesellschaft, priority 1993, dated 1998):
Like-named read-outs stand apart in the source and are kept apart here.

Assays:
[1] = biological target: T1, amino-acid transporter AAP2 (Arabidopsis thaliana, UniProt Q38967); experiment: Uptake of radiolabeled L-proline by yeast mutant 22457d-AAP2 expressing the plant amino-acid transporter; format: cell-based; settings: read-out: Activity relative to control [%]
T1 construct: expressed in transfected cells; host or cells: Saccharomyces cerevisiae mutant 22574d (also printed 22457d)
T1 sequence (Q38967 1-493): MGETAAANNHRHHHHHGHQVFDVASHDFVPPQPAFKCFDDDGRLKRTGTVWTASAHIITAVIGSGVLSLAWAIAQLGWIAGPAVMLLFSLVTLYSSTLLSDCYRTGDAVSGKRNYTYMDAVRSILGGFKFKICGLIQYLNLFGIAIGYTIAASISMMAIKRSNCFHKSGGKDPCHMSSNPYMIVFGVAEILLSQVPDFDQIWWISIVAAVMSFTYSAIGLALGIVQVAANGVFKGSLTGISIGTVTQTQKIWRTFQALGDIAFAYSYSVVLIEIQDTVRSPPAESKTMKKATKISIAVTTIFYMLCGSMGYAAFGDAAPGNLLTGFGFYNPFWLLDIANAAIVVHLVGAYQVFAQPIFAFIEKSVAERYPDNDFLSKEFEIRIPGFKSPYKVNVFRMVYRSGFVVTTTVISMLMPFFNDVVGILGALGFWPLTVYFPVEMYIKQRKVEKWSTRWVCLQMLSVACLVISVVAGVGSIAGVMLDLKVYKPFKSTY
Procedure: Transporter investigations are carried out on the yeast mutant 22574d (Jauniaux & Grenson, Eur. J. Biochem. 190: 39-44, 1990), which harbors a mutation in the gene for amino-acid permease, and on the yeast mutant JT 16 (Tanaka and Fink, Gene 38: 205-214, 1985) which is incapable of histidine uptake, for identification of inhibitors of plant amino-acid transporters. These mutants are transformed with cDNA sequences which code for plant amino-acid transporters and lead to expression of functional transporters in the yeast cells. The cDNA sequences are cDNA sequences which code for the amino-acid transporters AAP1 and AAP2 from Arabidopsis thaliana (Frommer et al., 1993, Proc. Natl. Acad. Sci. USA 90: 5944-5948; Kwart et al., 1993, Plant J. 4:993-1002). For the measurements, cells of these mutants are cultured in minimal medium (NAAG+5 mmol/l proline) at 28° C. and harvested in the logarithmic phase (OD600 =0.6). The cells are spun down in a centrifuge at 4000 rpm and 4 degrees Celsius for 10 minutes and washed 2× with AUB buffer (modified AAB buffer, Ljungdahl et al.). The cell concentration is adjusted to an OD600 of 25 in AUB buffer.
100 μl portions of the cell suspension are mixed with 100 μl of a 1 mmol/l L-proline solution (18.5 kBq of L-[14C]-proline) and various concentrations of the appropriate substance to be investigated. After 20, 60, 120 and 180 seconds, a 50 μl aliquot is removed, diluted in 4 ml -of ice-cold AUB buffer and filtered through glass fever [sic] filter. In order to remove nonspecifically bound L-[14C]-proline, the cells are washed 2× with 4 ml of ice-cold water each time. The radioactivity retained on the glass filter is then measured in a liquid scintillation counter. The radioactivity reflects the amount of radiolabeled proline taken up by the cells. Uptake of radiolabeled proline without addition of a potential inhibitor is determined as one control. Cells of each of the mutants 22574d and JY 16 which have not been transformed with cDNA sequences coding for plant amino-acid transporters are used as further control. Results of measurements of this type on the mutants 22457d-AAP2 which expresses the amino-acid transporter AAP2 from Arabisopsis [sic] thaliana are shown in the following table.
For the investigations, yeast cells of the strain 22457d were transformed with a cDNA sequence which codes for the amino-acid transporter AAP2, and the uptake of radiolabeled proline in the presence of various substances was determined. The various substances tested, their concentration, and the activity of the transporter, shown as percentage activity of the control with which no potential inhibitors were added, are indicated.

[2] = test system: sucrose transporter P62 (StSUT1); experiment: Activation of sucrose transport by preincubation of the yeast cells; format: cell-based, Solanum tuberosum; settings: for Effect on sucrose transport as a function of concentration: preincubation of yeast cells, result in words
Procedure: The transport of sucrose by the sucrose transporter P62 (StSUT1) from Solanum tuberosum can be increased by previous energizing of the yeast cells by incubation in glucose, stachyose and adenine. The same increase in transport activity is achieved by reducing the pH to pH 3.8 in the measurement. The measurement of transport to determine the activation takes place as described in Example 3 but the cells are incubated before the actual measurement not in 10 mM glucose for 5 min but in solutions of various concentrations of glucose, stachyose and adenine for 5 min. Yeast cells which are not incubated in solutions of these substances before the measurement act as control. The following table indicates the extent of activation of sucrose transport with various concentrations of glucose, stachyose and adenine compared with the control.

[3] = biological target: T2, sucrose transporter P62 (StSUT1) (Solanum tuberosum, UniProt Q43653); experiment: [14C]-sucrose uptake by yeast strain SUSY-7-P62 (StSUT1) expressing the potato sucrose transporter; format: cell-based; settings: pH 3.8, read-out: Activity relative to the control [%]
T2 construct: whole-cell [14C]-sucrose uptake; no tag or borders given
T2 sequence (Q43653 1-516): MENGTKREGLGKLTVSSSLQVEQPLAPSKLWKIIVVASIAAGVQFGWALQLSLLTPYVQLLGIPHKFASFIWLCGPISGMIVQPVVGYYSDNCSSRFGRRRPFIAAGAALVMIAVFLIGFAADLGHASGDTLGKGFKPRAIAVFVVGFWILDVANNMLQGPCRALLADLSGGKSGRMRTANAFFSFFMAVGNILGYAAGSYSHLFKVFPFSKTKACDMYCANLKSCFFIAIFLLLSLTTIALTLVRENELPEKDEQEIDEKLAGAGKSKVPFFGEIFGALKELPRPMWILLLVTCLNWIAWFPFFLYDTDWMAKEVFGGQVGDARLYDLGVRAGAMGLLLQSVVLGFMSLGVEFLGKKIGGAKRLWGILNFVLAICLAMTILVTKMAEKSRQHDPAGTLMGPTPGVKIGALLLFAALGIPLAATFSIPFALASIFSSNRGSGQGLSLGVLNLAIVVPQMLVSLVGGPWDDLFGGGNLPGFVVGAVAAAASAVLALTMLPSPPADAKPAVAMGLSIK
Text: Yeast cells of the strain SUSY7 (Riesmeier et al., 1992, EMBO J. 11: 4705-4713) are used to identify substances which have an inhibitory effect on sucrose transporters from potato. Cells of this strain are transformed with a cDNA sequence which codes for the sucrose transporter P62 (StSUT1) from potato (WO 94/00574, Riesmeier et al., 1993, Plant Cell 5:1591-1598) and which ensures expression of a functional transporter in the cells. The resulting yeast strain was called SUSY-7-P62 (StSUT1). The yeast cells are cultured in minimal medium (SD +2% (w/v) sucrose, pH 3.8) at 28° C. and harvested in the logarithmic phase (OD600 =0.6). The cells are spun down at 4000 rpm for 10 minutes and washed twice with SD medium. A cell concentration of c=50 g/l in SD medium is adjusted according to the wet weight of the cells, and 200 Al aliquot fractions are taken. Before the actual reaction, the cells are incubated in 10 mM glucose for 5 min and adjusted to pH 3.8 with MES buffer. The reaction is started by adding 200 Al of a 0.2 mmol/l [14C]-sucrose solution (3 mCi/mmol) in SD medium (pH 3.8). After 20, 60, 120, 180 and 240 seconds, 70 μl portions of the suspension are removed and pipetted into 4 ml of ice-cold water in order to stop the reaction. The cells are filtered off on glass fiber filters and washed twice with ice-cold water. The radioactivity on the filters is subsequently determined in a liquid scintillation counter. The substances to be tested are added 30 seconds before addition of the sucrose. The uptake of radiolabeled sucrose without addition of a potential inhibitor is determined as one control. Cells of the strain SUSY7 which are not transformed with cDNA sequences coding for a sucrose transporter from potato are employed as further control.
The various tested substances, their concentration and the activity of the transporter, shown as percentage activity of the control in which no potential inhibitors were added, are indicated.

[4] = biological target: T3, ammonium transporter AMT1 (Arabidopsis thaliana, UniProt P54144); experiment: cell-based
T3 construct: expressed in transfected cells; host or cells: Saccharomyces cerevisiae 26972c (mutations in MEP1 and MEP2)
T3 sequence (P54144 1-501): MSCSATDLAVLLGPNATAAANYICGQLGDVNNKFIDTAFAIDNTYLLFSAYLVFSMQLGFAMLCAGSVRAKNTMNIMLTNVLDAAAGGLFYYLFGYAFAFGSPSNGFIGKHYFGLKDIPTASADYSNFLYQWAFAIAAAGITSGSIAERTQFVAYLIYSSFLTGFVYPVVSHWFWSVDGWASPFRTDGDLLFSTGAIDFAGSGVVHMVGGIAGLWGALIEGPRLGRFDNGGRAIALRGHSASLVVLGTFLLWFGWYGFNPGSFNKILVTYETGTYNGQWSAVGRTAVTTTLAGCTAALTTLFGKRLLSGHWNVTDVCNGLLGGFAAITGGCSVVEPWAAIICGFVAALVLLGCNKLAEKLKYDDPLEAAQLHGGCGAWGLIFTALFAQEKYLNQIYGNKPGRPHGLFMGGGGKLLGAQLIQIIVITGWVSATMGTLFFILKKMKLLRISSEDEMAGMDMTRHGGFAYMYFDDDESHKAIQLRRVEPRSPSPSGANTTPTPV
Procedure: The measurements of transport identify inhibitors of plant ammonium transporters are carried out with the structural analog methylamine because radiolabeled ammonium is not commercially obtainable.
The yeast cells are transformed by standard methods with cDNA sequences which code for an ammonium transporter from plants and which permit expression of a functional transporter in the yeast cells. […] The cells are cultured in NAAG-medium (2% glucose, 1.7 g/l yeast nitrogen-base w/o amino acids and ammonium sulfate (Difco), supplemented with 500 μg/ml L-proline) at 28 degrees Celsius, and harvested in the logarithmic phase (OD660.=0.6). The cells are then spun down in a centrifuge at 4000 rpm and 4 degrees Celsius for 10 minutes, washed twice with 20 mM sodium phosphate buffer, pH 7, and taken up in the same buffer to an 0D660 of 8. 200 μl aliquot fractions of the cell suspension are taken. 5 minutes before the actual measurement,the yeasts are activated by addition of 100 mM glucose and incubated at 30 degrees Celsius. To start the reaction, 100 μl of the cell suspension are added to 100 µl of reaction mixture (20 mM Na phosphate buffer, pH7; 18.5 kBq of [^14 C]-methylamine (NEN); 100 M methylamine; substance to be tested depending on the experiment (see FIG. 4)). In each case 10, 60, 120 and 180 seconds after starting the reaction, 50 μl aliquots are taken, added to 4 ml of ice-cold 5 mM methylamine solution and filtered on glass fibre filters. After the filters have been washed with a further 8 ml of a methylamine solution, the radioactivity on the filters is subsequently determined in a liquid scintillation counter. Inhibitors are added 60 seconds before adding the glucose.
The uptake of radiolabeled methylamine without addition of a potential inhibitor is determined as one control.

plants = experiment: Herbicidal activity on plants; format: in vivo; settings: whole plants; result in words
[5] = sucrose transport after 5 min preincubation with the substance at c1 [0.2 mol/l], 200000 µM
[6] = sucrose transport after 5 min preincubation with the substance at c2 [2 mmol/l]

## O=C(O)C1CCN1 (stereo not drawn) [Azetidine-2-carboxylate]
[1]; L-[14C]-proline uptake, tested substance 10 mM
  remaining activity at 10000 µM: 62%

## OC[C@H]1O[C@H](OC[C@H]2O[C@H](OC[C@H]3O[C@H](O[C@]4(CO)O[C@H](CO)[C@@H](O)[C@@H]4O)[C@H](O)[C@@H](O)[C@@H]3O)[C@H](O)[C@@H](O)[C@H]2O)[C@H](O)[C@@H](O)[C@H]1O [Stachyose]
[2]
  Effect on sucrose transport as a function of concentration: stimulates sucrose transport at low concentrations, while this effect is reversed at high concentrations (c>0.4 mmol/l)
[2]; [5]
  Activity relative to the control [%]: 144 ± 9%
[2]; [6]
  Activity relative to the control [%]: 101 ± 8%

## O=C(O)[C@H]1CCCN1 [D-Proline]
[1]
  remaining activity at 10000 µM: 90%

## O=[N+]([O-])c1ccc(O)c([N+](=O)[O-])c1 [DNP]
[3]
  remaining activity at 100 µM: 3%
[4]; pH 7, read-out: Activity relative to the control [%]
  remaining activity at 100 µM: 18%
[1]
  remaining activity at 100 µM: 7.6 ± 1.6%

## OC[C@H]1OC(O)[C@H](O)[C@@H](O)[C@@H]1O (stereo partly drawn) [Glucose]
[2]; [5]
  Activity relative to the control [%]: 89 ± 5%
[2]; [6]
  Activity relative to the control [%]: 90 ± 3%

## Nc1ncnc2nc[nH]c12 [Adenine]
[2]
  Effect on sucrose transport as a function of concentration: linear relation between the adenine concentration and the increase in the sucrose transport rate
[2]; [5]
  Activity relative to the control [%]: 141 ± 5%
[2]; [6]
  Activity relative to the control [%]: 225 ± 6%

## CN [Methylamine]
plants
  Herbicidal activity on plants: herbicidal activity on plants
[4]; pH 7, [14C]-methylamine uptake, tested substance 500 μM, read-out: Activity relative to the control [%]
  remaining activity at 500 µM: 40%
